Earlier results as cited in patent US6379706B2, “Rapidly disintegrating coated pellets with delayed release” (Roche Diagnostics GmbH, priority 1996, dated 2002).

Settings: for solubility (in words): aqueous medium

SMILES: CC(C)(Oc1ccc(CCNC(=O)c2ccc(Cl)cc2)cc1)C(=O)O [Bezafibrat, 2-{4-[2-[(4-chloro-benzoyl)-amino]ethyl]-phenoxy}-2-methylpropionic acid]
- solubility (in words): poorly soluble

SMILES: COc1ccccc1OCCNCC(O)COc1cccc2[nH]c3ccccc3c12 (racemic) [Carvedilol, (+/−)-1-(9H-carbazol-4-yloxy)-3-[(2-(2-methoxyphenoxy)-ethyl)-amino]-2-propanol]
- solubility (in words): poorly soluble
- solubility in the intestinal juice (in words) (intestinal juice): particularly poorly soluble

SMILES: Cc1cccc(Nc2ccncc2S(=O)(=O)NC(=O)NC(C)C)c1 [Torasemid, 1-isopropyl-3-[(4-m-toluidino-3-pyridyl)sulfonyl]-urea]
- solubility (in words): poorly soluble
